The results in this text go back to US20220023317A1, “PREVENTING OR MITIGATING CHEMOTHERAPY INDUCED ALOPECIA USING VITAMIN D” (Berg LLC, priority 2013, published 2022).

Molecules are shown by their SMILES.

In one data set the test system is MIAC51. Put plainly: Cure / survival rate of chloroleukemic rats after chemotherapy. The class given is in vivo, rat. The note with it: CTX, after two rounds of chemotherapy. The method, then: On day 5 after birth all rats received 1×105 MIAC51 intraperitoneally in 0.1 mL of serum free (SF) RPMI. MIAC51 were cultured in RPMI 1640 supplemented with L-glutamine and 10% fetal bovine serum at […] in a 5% CO2, 100% humidity incubator. Cells were grown to 50% confluency (1.5×106 mL) collected in 50 mL conical tubes, centrifuged at 600 g for 10 minutes at room temperature and resuspended in SF-RPMI at a concentration of 1×10^6/mL prior to injection.

A further data set deals with Long Evans Rats. The experiment in a line: Alopecia in chloroleukemic Long Evans rats receiving multi-course chemotherapy. The class given is in vivo, rat. The note with it: CTX. From the text: Animals were then randomized in four groups.
Treatments were started on day 6 after birth.
Unused preparations were disposed of.

Data set [1] deals with Long Evans and Sprague Dawley rats. The settings on record: CTX 37.5 mg/kg once i.p. As for the experimental part: Specifically, Long Evans and Sprague Dawley rats with pups were purchased from Harlan Laboratories, Inc. They were housed and fed according to applicable animal handling rules and regulations. Pups were allowed to acclimate for 48 hours prior to the start of experiments. […] Rats were isolated from their littermates and mother for 6-hour periods of time. Subsequently, the treated area was cleaned with soap and water and pups were returned to their litters. On day 13, rats either received etoposide (1.5 mg/kg daily for 3 days) or cyclophosphamide (CTX) (37.5 mg/kg once) or combination cyclophosphamide (35 mg/kg once) and doxorubicin (2.5 mg/kg daily for 3 days). All chemotherapies were purchased from Sigma and were given intraperitoneally (i.p.) in a total volume of 0.1 mL. Alopecia was recorded 10 days after the last dose of chemotherapy.

As to `O=P1(N(CCCl)CCCl)NCCCO1` (stereo not drawn) [CTX], the “% cured / survival rate” value in the data set on MIAC51 was determined as 20%. In addition, the “Cured (number of rats)” value in the data set with MIAC51 (of 40) was 8. For the same molecule, the “extent of alopecia (grade)” value in the data set on Long Evans Rats (first round of chemotherapy, all rats) was “+4”. Moreover, the “rats with alopecia grade 4+ (number)” value in the data set on Long Evans Rats (first round, 4+ = 75-100% alopecia, of 40) was determined as 40; with Long Evans Rats (second round, of 8), 8. The “alopecia in control rats that received cyclophosphamide” value in data set [1] is “totally alopecic”.
